# Reference: patent publication US9956232B2, “Dialkyl-phosphinoyl-alkane (Dapa) compounds and compositions for treatment of lower gastrointestinal tract disorders” (priority 2016, dated 2018)
# “And” between values parts separate entries of the source, which are not always exact repeats. Identical values can stand only once.
# Key:
# [1] = Tablet characterisation (hardness, friability, disintegration, HPLC recovery); format: physicochemical; conditions: prototype tablets disintegrated in water
# Description: Dilution Approach: DAPA-2-5 liquid were loaded onto excipients (batch size: 12-24 g) in ˜12 experiments. The API and the selected excipients were mixed geometrically using a stainless steel spatula, and the mixture passed through sieve #20. The sieved blend was lubricated using magnesium stearate (previously sieved through mesh #40), and evaluated for appearance and flow property (through funnel). Based on the flow nature, selected blends were compressed in to tablets using Ø7.2 mm (for 120 mg tablets) or Ø9.5 mm (for higher than 120 mg tablet) standard concave round tooling on an Acura rotary press. Tablets were evaluated for thickness, hardness, friability, and disintegration test in 10 mL of purified water at room temperature. The appearance of powder blends and tablets were photographed.
# The formed tablet was evaluated by several parameters. The dissolution rate is the time for the tablet to dissolve in a fixed volume of water [e.g. 10 mL] and, in the case of the ODT, the disintegration time should be less than 30 sec. Tablet hardness measures the structural integrity of a tablet “under conditions of storage, transportation, and handling before usage”. […]
# A high pressure liquid chromatography [HPLC] method was developed for analysis of DAPA-2-5 in aqueous solution. […] Prototype tablets containing DAPA-2-5 were disintegrated and the content of DAPA-2-5 measured. […]
# Strains TA 98 and TA100 = experiment: Ames test; format: cell-based; conditions: TA 98 and TA100, with and without liver activation
# Description: Preliminary toxicological studies were conducted on DAPA-2-5 and DAPA-2-7.
# [2] = tested on: pentobarbital-anesthetized male rats; experiment: Shaking frequency (wet-dog shaking) of anesthetized rats after intravenous, perioral or topical delivery; format: in vivo; conditions: anesthetized rat
# Description: In experiments conducted here, test compounds were evaluated for “wet-dog shaking” as a model of cooling sensation. Using a standardized procedure, test compounds were compared in their ability to stimulate the shaking response by intravenous injection into a cannulated femoral vein, by perioral administration, and by topical delivery to the abdominal skin.
# Each rat was given two injections with a 30 min interval. […] Shaking frequency was counted for 15 min after injection. Shaking was observed immediately after i.v. injection and at least 78% of the total shakes occurred in the first 5 min after injection. The response in the second trial was at least as robust in the first trial, showing the lack of desensitization.
# Test compounds were dissolved in saline and administered by oral gavage to pentobarbital-anesthetized male albino rats at 20 mg/kg at a volume of 0.1 mL/100 g body weight [N=3 to 4 rats per compound]. Shaking was counted over a 40 min period and recorded at 10-min intervals.
# For topical application of DAPA, the abdominal skin of the anesthetized rat was shaved and 20 μL of the pure DAPA was applied with a micropipette onto a ˜1 cm diameter circle of skin, enclosed with a ring of cream [Baby cream “Nevskaya kosmetika Detskyi” Nevskaya Kosmetika Inc., Saint-Petersburg 192029], as shown in FIG. 5D. The number of shakes was counted for 1 hr after application.
# TRPM8 = TRPM8 (Homo sapiens, UniProt Q7Z2W7); experiment: TRPM8 receptor agonist assay (Fluo-8 calcium, FLIPR); format: cell-based; set-up: host or cells: CHO cells, stably transfected
# Description: Compounds were tested on (CHO) cells stably transfected with human TRPM8 cDNAs using a Fluo-8 calcium kit and a Fluorescence Imaging Plate Reader ([…]™) instrument. […] Solutions were prepared by diluting stock solutions in a HEPES-buffered physiological saline (HBPS) solution. Test compound and control formulations were loaded in polypropylene or glass-lined 384-well plates, and placed into the FLIPR instrument (Molecular Devices Corporation, Union City, Calif., USA). Each was tested at 8 concentrations with n=4 replicates per determination. […] For […]™ assay, cells were plated in 384-well black wall, flat clear-bottom microtiter plates (Type: BD Biocoat Poly-D-Lysine Multiwell Cell Culture Plate) at approximately 30,000 cells per well. Cells were incubated at 37° C. overnight to reach a near confluent monolayer appropriate for use in a fluorescence assay. The test procedure was to remove the growth media and to add 40 μL of HBPS containing Fluo-8 for 30 minutes at 37° C. 10 μL of test compound, vehicle, or control solutions in HBPS were added to each well and read for 4 minutes. Concentration-response data were analysed via the FLIPR Control software that is supplied with the FLIPR System (MDS-AT) and fitted to a Hill equation.
# [3] = Repeated-dose toxicity in male rats (organ weights, histology); format: in vivo, rat
# Sequence of TRPM8 (Q7Z2W7 whole entry): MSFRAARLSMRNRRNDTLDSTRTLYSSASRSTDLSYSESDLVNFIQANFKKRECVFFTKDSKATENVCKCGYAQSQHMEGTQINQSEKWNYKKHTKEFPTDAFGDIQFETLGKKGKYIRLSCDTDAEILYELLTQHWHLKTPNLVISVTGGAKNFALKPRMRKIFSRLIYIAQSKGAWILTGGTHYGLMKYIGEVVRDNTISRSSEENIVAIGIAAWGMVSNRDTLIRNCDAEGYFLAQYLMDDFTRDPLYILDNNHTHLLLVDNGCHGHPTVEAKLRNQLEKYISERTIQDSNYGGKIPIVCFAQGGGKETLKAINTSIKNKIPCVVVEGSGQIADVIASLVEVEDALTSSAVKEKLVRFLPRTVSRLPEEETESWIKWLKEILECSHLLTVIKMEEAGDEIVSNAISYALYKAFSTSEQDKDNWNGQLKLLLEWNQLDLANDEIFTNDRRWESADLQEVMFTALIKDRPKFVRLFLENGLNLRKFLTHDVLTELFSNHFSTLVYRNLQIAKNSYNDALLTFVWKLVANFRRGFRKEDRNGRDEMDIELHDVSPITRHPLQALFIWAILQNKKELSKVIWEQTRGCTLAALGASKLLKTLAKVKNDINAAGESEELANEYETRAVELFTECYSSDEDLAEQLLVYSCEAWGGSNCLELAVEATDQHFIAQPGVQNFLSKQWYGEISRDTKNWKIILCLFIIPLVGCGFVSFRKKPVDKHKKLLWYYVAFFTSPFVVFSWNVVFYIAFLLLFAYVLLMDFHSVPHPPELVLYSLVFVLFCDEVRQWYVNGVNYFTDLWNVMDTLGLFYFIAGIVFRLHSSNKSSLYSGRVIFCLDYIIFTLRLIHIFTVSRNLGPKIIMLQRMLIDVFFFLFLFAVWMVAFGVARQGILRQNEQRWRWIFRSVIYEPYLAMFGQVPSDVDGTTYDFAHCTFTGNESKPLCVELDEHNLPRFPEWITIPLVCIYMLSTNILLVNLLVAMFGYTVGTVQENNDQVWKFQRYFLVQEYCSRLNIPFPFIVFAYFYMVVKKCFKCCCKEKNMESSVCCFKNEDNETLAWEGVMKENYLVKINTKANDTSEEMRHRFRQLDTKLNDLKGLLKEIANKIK
smiles,measurement,setting,value
"CCCCCP(=O)(C(C)CC)C(C)CC (stereo not drawn) [DAPA-2-5, 1-Di(sec-butyl) phosphinoyl-pentane]",DAPA-2-5 recovered from the aqueous phase,[1],86±2%
same,mutagenicity in the Ames test,Strains TA 98 and TA100,Neither of these compounds was mutagenic
same,"Shaking frequency, Intravenous","[2]; 2 mg/kg i.v., 2nd trial, counted for 15 min",20 ± 2 shakes
same,"Shaking frequency, Perioral","[2]; 20 mg/kg by oral gavage, counted for 40 min",4 shakes and 4 ± 1 shakes
same,"Shaking frequency, Topical","[2]; 20 μL pure compound on shaved abdominal skin, counted for 1 hr",0 shakes
same,×Menthol,TRPM8; TRPM8 relative potency as repeated in Table 4,2.2
same,Relative Potency,TRPM8; relative to menthol = 1.0 (Table 2),2.2
same,organ weights and histology vs vehicle,"[3]; 20 mg/kg perioral by gavage for 7 days, rats",no statistical difference in organ weights or in histology
same,organ weights and histology vs vehicle,"[3]; via drinking water, 41 mg/kg body weight/day for 40 days, male rats",no statistical difference in organ weights or in histology
